For one series, the system named is HCT116 p53+/+ cells. Put plainly: WST-8 cell viability assay in HCT116 p53+/+ cells. Type of series: cell-based, human. Conditions: 0, 5, 10, 15, 20 μM, 12 to 24 hours. The method, then: First, HCT116 p53^+/+ cells were cultured in a thermos-hygrostat incubator at 37° C., 5% CO2 in DMEM containing 10% FBS and 1% Pen-Step.
For a WST-8 cell viability assay, the HCT116 p53+/+ cells were seeded at a density of 2×10^4 cells/well in […] culture medium in a 96-well plate and cultured for 24 hours. […] After culturing at 37° C. for 12 to 24 hours, WST-8 reagent (Abcam Inc., UK) was added to each well, and culture was performed for 30 minutes. The absorbance at […] was measured using a microplate reader (PerkinElmer Inc., USA).
(In general: Tetrazolium assays rely on reduction of a dye to a coloured formazan, in cell work by metabolically active cells.)

The test system of the next series is p53. In words: Immunoblotting kinetic analysis of MDM2 and p53. Format: cell-based, human. Particulars: 10 μM; HCT116 p53+/+ cells. The method, then:
The cells were harvested, washed with cold PBS, and lysed with a radio-immunoprecipitation assay (RIPA) buffer. The cell lysate was centrifuged at 4° C. and 13,000 rpm for 20 minutes, and the supernatant was collected. The protein amount of the lysate was quantified using a bicinchoninic acid (BCA) protein assay kit (Pierce Inc., USA). The supernatant of the cell lysate was loaded on 10% sodium dodecyl sulfate-polyacrylamide gel electrophoresis (SDS-PAGE) to separate proteins, which were transferred to a polyvinylidene fluoride (PVDF) membrane, and the membrane was treated with 5% skim milk in tris-buffered saline with Tween® 20 (TBS-T) buffer (room temperature), and after one hour, washed with TBS-T buffer (2×) for one minute. After treatment with primary antibodies (specific primary antibodies) (p53, MDM2, or vinculin), the membrane was incubated overnight at 4° C. The membrane was washed with TBS-T for 10 minutes (5×), treated with horseradish peroxidase (HRP)-conjugated secondary antibodies (room temperature, 1 h), and then washed with TBS-T for 10 minutes (5×) and analyzed using a LAS 3000 luminescent image analyzer (Fujifilm Co., LTD., Japan).
On the technique in general: A western blot detects proteins with antibodies after separation by electrophoresis.

The test system of another series is HCT116 cells. Put plainly: In vivo anticancer effect in HCT116 xenografted mice. Particulars: 76.9 nmol/100 μl saline i.v., once every two days, five times; 14 days. The method, then: Body weight and tumor volume of each group were measured every 0, 2, 4, 6, 8, 10, 12, and 14 days.
Series [1] in a line: Biodistribution of Cy5.5-labeled SdPN in xenografted mice (fluorescence, IVIS).
Procedure: In order to verify the tumor specificity of the SdPN according to the present invention, an analysis was performed using a cancer animal model (xenograft) in which human cancer cells were cultured in immunodeficient mice. Specifically, a mixture of 50 mL of Matrigel (Corning, NY, USA) and HCT116 cells (5× 10^6 cells in 50 mL of saline) was subcutaneously injected into the hind legs of 5-week-old nu/nu male nude mice (nu/nu athymic). The tumor volume was analyzed using a caliper [tumor volume=(major axis)×(minor axis)^2/2]. […] At this time, the dose was 100 μl of saline injected at a concentration of 400 μM based on Cy5.5 (40 nmol/100 μl saline).
Fluorescence images were obtained at various times after the intravenous injection.
The isolated cancer tissues were treated with 4% paraformaldehyde, and their moisture content was assessed with sucrose.
The mark [2] stands for this setting: 24 hours after i.v. administration, Cy5.5-labeled.

Data on two compounds can be found in US20250177479A1, “DEPSIPEPTIDE-BASED AMPHIPHILIC BULIDING BLOCK TO INHIBIT PROTEIN-PROTEIN INTERACTIONS, NANOSTRUCTURE COMPRISED THEREOF AND USES THEREOF” (INDUSTRY-ACADEMIC COOPERATION FOUNDATION, YONSEI UNIVERSITY, priority 2023, published 2025).

As to `COc1cc(C(=O)O)ccc1NC(=O)[C@@H]1N[C@@H](CC(C)(C)C)[C@](C#N)(c2ccc(Cl)cc2F)[C@H]1c1cccc(Cl)c1F` [idasanutlin], the “viability of HCT116 p53+/+ cells (cancer cell apoptotic effect)” value in the series on HCT116 p53+/+ cells is listed as “higher anticancer effect than that of the SdPN (6:4) of Example 8”. The “PPI inhibition action speed” value in the series with p53 was “three”. Besides, the cancer growth entry in the series on HCT116 cells was “significantly inhibited”.

Take sulfo-cyanine 5.5 [Cy5.5]: in series [1] (40 nmol/100 μl saline i.v.), the “localization to the cancer area (IVIS)” value is “failed to be specifically localized to the cancer area” and the “removal over time (IVIS)” value was “rapidly removed over time”. In addition, in series [1] (setting [2]), the “accumulation in cancer tissues (frozen sections)” value is on record as “no significant accumulation”; the “accumulation in major organs and cancer tissues (ex vivo fluorescence)” value is given as “significant accumulation neither in major organ tissues nor cancer tissues”. Also, the “fluorescence of tail vein blood over time (in vivo retention)” value in series [1] (after i.v. administration, Cy5.5-labeled) is given as “completely eliminated within a short time”.
